The subject of one assay is HT-1080 cells. In words: LOC library screening and confirmation: suppression of erastin-induced death. Type of assay: cell-based. Particulars: Homo sapiens, LOC library screening and confirmation studies, read-out: EC50, inhibition of erastin-induced ferroptosis. On the procedure:
The LOC library was screened over the course of several days. 384-well glass bottom assay plates (Corning) were seeded with 1,000 HT-1080 cells/well the day before the experiment. The day of the experiment, LOC mother plates were thawed at room temperature for 1 hour and spun at 1000 rpm for 1 minute prior to use. Using a BioMek liquid handing robot, 2 μL of compound solution from each LOC library mother plate was transferred to a 384 deep well “daughter” plate (Grenier) containing 148 μL of cell culture media. The cell culture media in each assay plate was then removed by flicking and, using a BioMek FX, replaced with 36 μL of growth media containing erastin (5 μM final). To this was added 4 μL of the drug solution from the daughter plate, for a final screening concentration of 5.3 μg/mL for each LOC library compound. 4 wells containing DMSO alone (no erastin), 4 wells containing 100 μM DFO alone (no erastin), 4 wells containing erastin plus DMSO, and 4 wells containing erastin plus 100 μM DFO (positive control) were included as controls on each plate. Each drug daughter plate was aliquoted separately to duplicate assay plates. Plates were then spun briefly (1000 rpm, 5 seconds) and returned to the 37° C. tissue culture incubator. 24 hours later, cell viability was assessed by Alamar Blue as described above.
Candidate hits from the LOC library screen were identified. […]

In assay [1] the test system is mice, IRI of the cremaster muscle. Description: In vivo microscopy on the postischemic cremaster muscle. Set-up: species or system mouse. On the procedure: The surgical preparation of the cremaster muscle was performed as originally described by Baez with minor modifications (Traykova-Brauch et al., 2008; Mulay et al., 2013). Mice were anesthetized using a ketamine/xylazine mixture (100 mg/kg ketamine and 10 mg/kg xylazine), administrated by i.p. injection. The left femoral artery was cannulated in a retrograde manner for administration of microspheres and drugs. The right cremaster muscle was exposed through a ventral incision of the scrotum. The muscle was opened ventrally in a relatively avascular zone, using careful electrocautery to stop any bleeding, and spread over the transparent pedestal of a custom-made microscopic stage. Epididymis and testicle were detached from the cremaster muscle and placed into the abdominal cavity. Throughout the procedure as well as after surgical preparation during in vivo microscopy, the muscle was superfused with warm-buffered saline.
The setup for in vivo microscopy was centered around equipment for stroboscopic fluorescence epiillumination microscopy. […] Microscopy images were obtained with Olympus water immersion lenses (20×/numerical aperture (N.A.) 0.5 and 10×/N.A. 0.3) and recorded with an analog black-and-white charge-coupled device (CCD) video camera (Cohu 4920; Cohu) and an analog video recorder (AG-7350-E; Panasonic). […] For measurement of centerline blood flow velocity, green fluorescent microspheres (2-μm diameter; Molecular Probes) were injected via the femoral artery catheter, and their passage through the vessels of interest was recorded using the FITC filter cube under appropriate stroboscopic illumination (exposure, 1 ms; cycle time, 10 ms; length of the electromagnetic wave, 488 nm), integrating video images for sufficient time (>80 ms) to allow for the recording of several images of the same bead on one frame. […]

Each structure is given as a SMILES string.

Take `CCOC(=O)c1ccc(NC2CCCCC2)c(N)c1` [SRS8-28 (Fer-1), ethyl 3-amino-4-(cyclohexylamino)benzoate]: in the assay with HT-1080 cells, the EC50 stood at 0.06 µM. Also, the leukocyte adherence entry in assay [1] (1 h and 2 h after onset of reperfusion) is “remains unchanged”. Moreover, the leukocyte transmigration entry in assay [1] (ferrostatin-1 2 mg/kg i.p.) was “Significantly reduced”. For the same compound, the leukocyte rolling entry in assay [1] (within the first hour after reperfusion) is listed as “is affected”.

The values above are taken from patent US11192849B2, “Compounds, compositions, and methods for modulating ferroptosis and treating excitotoxic disorders” (THE TRUSTEES OF COLUMBIA UNIVERSITY IN THE CITY OF NEW YORK, priority 2013, dated 2021).
